Data as given in article PMC5515057, “Protein sensing in living cells by molecular rotor-based fluorescence-switchable chemical probes” (Chemical Science, 2015).

Assays:
[1] = target: T1, O6-methylguanine-methyltransferase (MGMT) (Homo sapiens, UniProt P16455); test: fluorescence turn-on kinetics with recombinant MGMT, SDS-PAGE in-gel fluorescence, Job's plot; also HeLa S3 lysate labeling; assay type: binding; conditions: read-out: fluorescence turn-on kinetics with recombinant MGMT, SDS-PAGE in-gel fluorescenc
T1 construct: recombinant MGMT, about 26 kDa
T1 sequence (P16455 1-207): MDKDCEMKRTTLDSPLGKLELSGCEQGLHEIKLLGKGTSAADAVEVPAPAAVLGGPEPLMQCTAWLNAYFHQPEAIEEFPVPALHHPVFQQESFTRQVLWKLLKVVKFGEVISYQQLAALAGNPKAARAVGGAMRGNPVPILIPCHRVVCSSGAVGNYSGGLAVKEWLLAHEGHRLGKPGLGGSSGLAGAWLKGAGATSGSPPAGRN

[2] = target: T2, human carbonic anhydrase II (hCAII) (Homo sapiens, UniProt P00918); test: fluorescence turn-on titration with hCAII in PBS; displaced by ethoxzolamide; assay type: binding
T2 construct: gene CA2

kinact/KI [1] [M⁻¹ s⁻¹] | Kd [2] [nM] | Compound
~715 |  | N#C/C(=C\c1cc2c3c(c1)CCCN3CCC2)C(=O)NCc1ccc(COc2nc(N)nc3[nH]cnc23)cc1 [BG-CCVJ]
 | ~70 | N#CC(=Cc1cc2c3c(c1)CCCN3CCC2)C(=O)NCc1ccc(S(N)(=O)=O)cc1 [SA-CCVJ]
